What all share (assay): Eurofins kinase profiling
Holding throughout (format): biochemical

For assay [1], the target named is T1, FGFR3(h) (Homo sapiens, UniProt P22607).
T1 construct: purchased Eurofins KinaseProfiler
Particulars: read-out: residual kinase activity FGFR3(h). Summed up: (§1)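 At a fixed 1 µM, the compound was profiled against each kinase, whose activity was quantified through radiolabeled phosphate incorporation.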

Assay [2] has as its target T2, ErbB4(h) (Homo sapiens, UniProt Q15303).
T2 construct: purchased Eurofins KinaseProfiler
The following applies: read-out: residual kinase activity ErbB4(h). Summed up: as §1

The target in assay [3] is T3, EGFR(T790M,L858R)(h) (Homo sapiens, UniProt P00533, L858R/T790M).
T3 construct: purchased Eurofins KinaseProfiler
T3 sequence (P00533 25-1210 T790M/L858R): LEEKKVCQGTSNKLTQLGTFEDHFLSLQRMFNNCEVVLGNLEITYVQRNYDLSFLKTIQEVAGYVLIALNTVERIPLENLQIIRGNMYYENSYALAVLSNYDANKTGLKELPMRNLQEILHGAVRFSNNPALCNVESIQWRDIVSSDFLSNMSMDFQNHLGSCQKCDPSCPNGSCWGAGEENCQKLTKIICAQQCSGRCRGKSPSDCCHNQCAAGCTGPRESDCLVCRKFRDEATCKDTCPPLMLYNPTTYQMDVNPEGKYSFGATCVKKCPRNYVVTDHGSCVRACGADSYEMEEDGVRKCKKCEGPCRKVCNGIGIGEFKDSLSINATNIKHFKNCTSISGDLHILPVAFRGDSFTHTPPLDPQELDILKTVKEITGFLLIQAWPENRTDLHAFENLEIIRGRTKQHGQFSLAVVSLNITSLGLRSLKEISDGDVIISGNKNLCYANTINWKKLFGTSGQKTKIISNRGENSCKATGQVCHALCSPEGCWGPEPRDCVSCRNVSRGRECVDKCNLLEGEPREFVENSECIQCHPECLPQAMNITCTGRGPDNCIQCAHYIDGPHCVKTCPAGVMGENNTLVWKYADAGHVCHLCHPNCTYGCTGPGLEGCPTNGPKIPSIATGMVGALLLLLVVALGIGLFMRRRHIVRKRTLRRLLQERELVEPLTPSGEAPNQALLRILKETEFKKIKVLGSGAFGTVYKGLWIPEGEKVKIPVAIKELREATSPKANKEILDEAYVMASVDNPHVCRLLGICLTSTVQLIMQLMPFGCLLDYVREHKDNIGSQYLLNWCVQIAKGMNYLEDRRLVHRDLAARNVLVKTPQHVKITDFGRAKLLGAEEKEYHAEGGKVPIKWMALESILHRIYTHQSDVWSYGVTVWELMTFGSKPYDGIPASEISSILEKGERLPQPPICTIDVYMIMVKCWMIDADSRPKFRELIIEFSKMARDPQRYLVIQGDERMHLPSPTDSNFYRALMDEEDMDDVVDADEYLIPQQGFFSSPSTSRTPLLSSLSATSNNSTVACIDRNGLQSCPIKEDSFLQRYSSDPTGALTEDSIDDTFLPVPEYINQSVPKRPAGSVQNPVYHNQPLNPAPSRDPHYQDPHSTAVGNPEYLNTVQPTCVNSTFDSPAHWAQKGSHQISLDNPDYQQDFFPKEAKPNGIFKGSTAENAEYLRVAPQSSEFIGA
Particulars: read-out: residual kinase activity EGFR(T790M,L858R)(h). Summed up:
as §1

Assay [4] deals with T4, Mer(h) (Homo sapiens, UniProt Q12866).
T4 construct: purchased Eurofins KinaseProfiler
T4 sequence (Q12866 21-999): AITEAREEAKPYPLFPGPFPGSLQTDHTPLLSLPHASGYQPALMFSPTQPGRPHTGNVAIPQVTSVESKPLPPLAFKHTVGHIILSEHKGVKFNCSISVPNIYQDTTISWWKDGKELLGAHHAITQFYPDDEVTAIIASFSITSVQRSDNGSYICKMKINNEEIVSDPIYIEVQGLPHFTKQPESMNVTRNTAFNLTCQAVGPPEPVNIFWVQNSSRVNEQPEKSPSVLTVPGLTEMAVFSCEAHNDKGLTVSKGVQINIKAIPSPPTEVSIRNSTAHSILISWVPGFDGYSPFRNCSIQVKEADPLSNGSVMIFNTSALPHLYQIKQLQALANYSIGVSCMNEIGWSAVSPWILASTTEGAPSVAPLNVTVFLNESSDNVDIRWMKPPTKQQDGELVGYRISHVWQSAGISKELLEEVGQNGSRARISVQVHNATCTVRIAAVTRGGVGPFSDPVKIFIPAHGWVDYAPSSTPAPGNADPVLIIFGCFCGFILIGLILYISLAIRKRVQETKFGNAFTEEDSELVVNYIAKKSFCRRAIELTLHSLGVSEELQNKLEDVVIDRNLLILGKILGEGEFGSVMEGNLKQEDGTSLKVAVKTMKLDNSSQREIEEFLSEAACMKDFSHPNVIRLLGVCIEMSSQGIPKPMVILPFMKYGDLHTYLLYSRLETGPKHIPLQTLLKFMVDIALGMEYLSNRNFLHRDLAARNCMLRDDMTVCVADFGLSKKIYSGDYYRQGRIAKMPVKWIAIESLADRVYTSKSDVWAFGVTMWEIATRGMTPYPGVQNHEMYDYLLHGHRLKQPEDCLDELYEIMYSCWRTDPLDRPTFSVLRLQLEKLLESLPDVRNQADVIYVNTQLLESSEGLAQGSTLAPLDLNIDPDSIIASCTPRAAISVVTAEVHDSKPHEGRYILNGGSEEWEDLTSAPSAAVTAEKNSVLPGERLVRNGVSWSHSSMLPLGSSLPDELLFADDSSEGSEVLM
Particulars: read-out: residual kinase activity Mer(h). The method, boiled down:
as §1

Assay [5] has as its target T5, Lck(h) (Homo sapiens, UniProt P06239).
T5 construct: purchased Eurofins KinaseProfiler
Particulars: read-out: residual kinase activity Lck(h). Summed up:
as §1

In assay [6] the target is T6, KDR(h) (Homo sapiens, UniProt P35968).
T6 construct: purchased Eurofins KinaseProfiler
Particulars: read-out: residual kinase activity KDR(h). The method, boiled down: as §1

The target in assay [7] is T7, DAPK1(h) (Homo sapiens, UniProt P53355).
T7 construct: purchased Eurofins KinaseProfiler
T7 sequence (P53355 whole entry): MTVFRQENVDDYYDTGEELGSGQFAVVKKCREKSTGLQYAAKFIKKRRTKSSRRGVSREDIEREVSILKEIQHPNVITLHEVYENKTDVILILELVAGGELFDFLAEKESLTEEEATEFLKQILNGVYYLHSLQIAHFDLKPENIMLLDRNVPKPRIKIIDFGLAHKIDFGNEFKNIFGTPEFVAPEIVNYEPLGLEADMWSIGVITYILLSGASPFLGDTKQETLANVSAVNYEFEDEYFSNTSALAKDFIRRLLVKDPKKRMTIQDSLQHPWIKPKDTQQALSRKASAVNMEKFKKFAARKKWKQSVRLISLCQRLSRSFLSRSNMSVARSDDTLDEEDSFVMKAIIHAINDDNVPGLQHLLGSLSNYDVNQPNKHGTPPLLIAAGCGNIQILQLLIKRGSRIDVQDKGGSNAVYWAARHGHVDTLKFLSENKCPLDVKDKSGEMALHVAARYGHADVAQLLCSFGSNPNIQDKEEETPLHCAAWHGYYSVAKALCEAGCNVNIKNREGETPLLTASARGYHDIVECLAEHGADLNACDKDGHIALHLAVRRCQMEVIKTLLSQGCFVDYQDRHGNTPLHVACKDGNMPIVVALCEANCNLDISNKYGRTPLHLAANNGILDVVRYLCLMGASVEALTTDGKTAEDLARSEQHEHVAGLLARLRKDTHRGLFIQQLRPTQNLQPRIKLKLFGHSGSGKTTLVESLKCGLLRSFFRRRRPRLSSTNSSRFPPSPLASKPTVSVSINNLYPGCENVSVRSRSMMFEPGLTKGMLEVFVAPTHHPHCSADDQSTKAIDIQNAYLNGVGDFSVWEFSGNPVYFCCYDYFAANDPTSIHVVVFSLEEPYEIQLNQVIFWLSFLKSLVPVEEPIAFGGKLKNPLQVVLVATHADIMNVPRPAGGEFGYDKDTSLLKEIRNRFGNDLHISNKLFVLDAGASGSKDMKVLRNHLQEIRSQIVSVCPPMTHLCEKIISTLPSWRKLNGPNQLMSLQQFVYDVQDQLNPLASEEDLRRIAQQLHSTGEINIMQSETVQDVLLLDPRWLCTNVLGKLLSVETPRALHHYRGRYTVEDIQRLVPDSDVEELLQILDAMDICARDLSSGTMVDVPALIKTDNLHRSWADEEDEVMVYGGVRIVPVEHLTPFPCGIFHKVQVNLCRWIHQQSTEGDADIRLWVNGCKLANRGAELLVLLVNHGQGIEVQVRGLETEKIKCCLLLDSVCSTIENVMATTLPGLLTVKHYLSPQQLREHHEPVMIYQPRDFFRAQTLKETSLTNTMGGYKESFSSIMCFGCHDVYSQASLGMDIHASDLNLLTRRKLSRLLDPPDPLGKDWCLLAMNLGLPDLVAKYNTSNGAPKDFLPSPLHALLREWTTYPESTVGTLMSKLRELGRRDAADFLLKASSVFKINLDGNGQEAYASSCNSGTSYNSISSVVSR
The following applies: read-out: residual kinase activity DAPK1(h). The method, boiled down: as §1

The target in assay [8] is T8, Pyk2(h) (Homo sapiens, UniProt Q14289).
T8 construct: purchased Eurofins KinaseProfiler
Particulars: read-out: residual kinase activity Pyk2(h). The method, boiled down:
as §1

Assay [9] deals with T9, EGFR(L858R)(h) (Homo sapiens, UniProt P00533, L858R).
T9 construct: purchased Eurofins KinaseProfiler
The following applies: read-out: residual kinase activity EGFR(L858R)(h). The method, boiled down:
as §1

The target of assay [10] is T10, Blk(h) (Homo sapiens, UniProt P51451).
T10 construct: purchased Eurofins KinaseProfiler
The following applies: read-out: residual kinase activity Blk(h). Summed up:
as §1

The target of assay [11] is T11, PKCε(h) (Homo sapiens, UniProt Q02156).
T11 construct: purchased Eurofins KinaseProfiler
T11 sequence (Q02156 1-737): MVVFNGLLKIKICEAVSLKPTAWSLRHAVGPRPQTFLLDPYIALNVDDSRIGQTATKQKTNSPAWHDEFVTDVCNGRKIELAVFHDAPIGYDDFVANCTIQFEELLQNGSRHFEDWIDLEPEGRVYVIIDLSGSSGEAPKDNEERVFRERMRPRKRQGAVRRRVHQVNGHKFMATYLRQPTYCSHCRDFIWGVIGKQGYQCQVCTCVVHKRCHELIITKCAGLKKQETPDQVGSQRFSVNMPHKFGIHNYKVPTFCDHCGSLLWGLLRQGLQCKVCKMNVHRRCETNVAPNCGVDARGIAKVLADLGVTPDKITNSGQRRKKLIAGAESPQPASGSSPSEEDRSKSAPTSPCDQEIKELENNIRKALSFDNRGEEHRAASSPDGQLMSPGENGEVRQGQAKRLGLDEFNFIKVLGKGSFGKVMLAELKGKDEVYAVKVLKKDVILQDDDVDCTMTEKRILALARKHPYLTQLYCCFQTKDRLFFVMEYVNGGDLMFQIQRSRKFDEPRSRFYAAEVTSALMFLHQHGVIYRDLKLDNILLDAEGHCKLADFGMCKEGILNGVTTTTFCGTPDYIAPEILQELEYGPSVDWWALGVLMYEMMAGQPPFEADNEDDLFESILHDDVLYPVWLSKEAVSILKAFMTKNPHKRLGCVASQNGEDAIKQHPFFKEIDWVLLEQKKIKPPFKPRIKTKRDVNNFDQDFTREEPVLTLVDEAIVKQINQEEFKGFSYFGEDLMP
The following applies: read-out: residual kinase activity PKCε(h). Summed up:
as §1

Assay [12] has as its target T12, Lck(h) activated (Homo sapiens, UniProt P06239).
T12 construct: purchased Eurofins KinaseProfiler
Particulars: 1 µM. Summed up:
as §1

Assay [13] deals with T13, EGFR(T790M)(h) (Homo sapiens, UniProt P00533, T790M).
T13 construct: purchased Eurofins KinaseProfiler
The following applies: read-out: residual kinase activity EGFR(T790M)(h). The method, boiled down: as §1

SMILES strings stand for the structures.

T2 sequence (Q15303 26-1308): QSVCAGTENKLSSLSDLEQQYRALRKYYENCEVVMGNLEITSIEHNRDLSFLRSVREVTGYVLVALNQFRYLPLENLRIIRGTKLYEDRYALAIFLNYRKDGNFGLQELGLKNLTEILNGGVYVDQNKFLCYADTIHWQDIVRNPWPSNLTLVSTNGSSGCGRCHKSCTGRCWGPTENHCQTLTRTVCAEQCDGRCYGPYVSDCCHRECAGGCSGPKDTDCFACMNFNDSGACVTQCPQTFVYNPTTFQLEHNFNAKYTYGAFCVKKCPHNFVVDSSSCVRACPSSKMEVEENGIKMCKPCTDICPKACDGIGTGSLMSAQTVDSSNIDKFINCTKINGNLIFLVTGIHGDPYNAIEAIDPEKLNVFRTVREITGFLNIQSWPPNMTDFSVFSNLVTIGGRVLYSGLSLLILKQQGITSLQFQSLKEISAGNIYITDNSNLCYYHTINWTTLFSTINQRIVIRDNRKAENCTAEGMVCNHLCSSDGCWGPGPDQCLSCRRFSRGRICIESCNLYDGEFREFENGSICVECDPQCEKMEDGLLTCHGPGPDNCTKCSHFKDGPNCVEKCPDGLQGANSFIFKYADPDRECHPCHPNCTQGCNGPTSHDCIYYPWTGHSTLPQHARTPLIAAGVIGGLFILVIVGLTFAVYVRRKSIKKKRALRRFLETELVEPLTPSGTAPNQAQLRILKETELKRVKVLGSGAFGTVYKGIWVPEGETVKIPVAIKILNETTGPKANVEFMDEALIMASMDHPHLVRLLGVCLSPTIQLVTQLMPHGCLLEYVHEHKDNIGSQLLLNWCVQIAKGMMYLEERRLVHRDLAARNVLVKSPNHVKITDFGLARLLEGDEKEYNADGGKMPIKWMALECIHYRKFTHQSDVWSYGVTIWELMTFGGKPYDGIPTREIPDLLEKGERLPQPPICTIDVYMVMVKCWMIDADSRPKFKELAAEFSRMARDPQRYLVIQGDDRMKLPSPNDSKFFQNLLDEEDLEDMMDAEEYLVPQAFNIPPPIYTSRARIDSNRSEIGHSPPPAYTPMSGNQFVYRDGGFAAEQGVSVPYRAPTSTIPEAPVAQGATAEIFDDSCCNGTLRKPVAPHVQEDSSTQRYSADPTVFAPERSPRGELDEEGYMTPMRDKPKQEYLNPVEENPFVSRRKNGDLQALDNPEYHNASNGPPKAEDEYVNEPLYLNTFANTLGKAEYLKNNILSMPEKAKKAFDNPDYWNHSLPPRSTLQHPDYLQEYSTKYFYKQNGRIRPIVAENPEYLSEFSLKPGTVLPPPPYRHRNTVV
T1 sequence (P22607 23-806): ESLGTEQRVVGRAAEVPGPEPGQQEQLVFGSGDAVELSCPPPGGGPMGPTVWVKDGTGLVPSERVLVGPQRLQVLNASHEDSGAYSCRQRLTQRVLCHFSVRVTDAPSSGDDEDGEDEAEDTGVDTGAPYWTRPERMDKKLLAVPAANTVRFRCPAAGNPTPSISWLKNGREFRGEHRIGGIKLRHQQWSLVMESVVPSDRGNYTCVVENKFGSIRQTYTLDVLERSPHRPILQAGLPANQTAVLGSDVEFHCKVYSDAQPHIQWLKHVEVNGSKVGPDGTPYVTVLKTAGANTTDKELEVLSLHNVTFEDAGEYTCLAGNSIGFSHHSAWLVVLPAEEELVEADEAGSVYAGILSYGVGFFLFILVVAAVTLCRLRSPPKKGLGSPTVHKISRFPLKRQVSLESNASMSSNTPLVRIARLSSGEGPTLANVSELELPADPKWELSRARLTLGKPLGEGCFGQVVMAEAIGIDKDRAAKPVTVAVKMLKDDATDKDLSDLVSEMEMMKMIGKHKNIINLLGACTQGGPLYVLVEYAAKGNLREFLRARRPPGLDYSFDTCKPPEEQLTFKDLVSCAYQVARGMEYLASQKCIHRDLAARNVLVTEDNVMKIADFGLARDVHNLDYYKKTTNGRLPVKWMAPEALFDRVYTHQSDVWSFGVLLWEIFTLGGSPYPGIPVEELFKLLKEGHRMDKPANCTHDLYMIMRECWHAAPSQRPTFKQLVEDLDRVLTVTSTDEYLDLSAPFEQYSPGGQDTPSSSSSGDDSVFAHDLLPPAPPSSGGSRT

In the case of `CONC(=O)c1ccccc1Nc1cc(Nc2cc(C)nn2C(C)C)ncc1Cl` [GSK2256098], the remaining activity at 1 µM was 91% in [1]; 81% in [2]; 88% in assay [3]; 97% in assay [4]; 110% in [5]; 88% in assay [6]. Besides, the remaining activity at 1 µM in [7] came to 83%; in assay [8] it was 60%; in [9], 33%; in [10], 117%; in [11], 112%; in [13] it was 106%. For the same compound, the “residual kinase activity Lck(h) activated” value in [12] was 90.
As to `CNC(=O)c1cccc(C)c1Nc1nc(Nc2ccc(N3CCN(C4C5CC6CC4CC(O)(C6)C5)CC3)cc2OC)ncc1C(F)(F)F` (stereo not drawn) [SJP1602, 2-((2-((4-(4-((2s,5r)-5-hydroxyadamantan-2-yl)piperazin-1-yl)-2-methoxyphenyl)amino)-5-(trifluoromethyl)pyrimidin-4-yl)amino)-N,3-dimethylbenzamide], the remaining activity at 1 µM in assay [1] was 86%; in assay [2], 99%; in assay [3], 88%; in [4], 60%; in assay [5] it was 63%; in assay [6] it was 101%. Moreover, the remaining activity at 1 µM in assay [7] came out at 108%; in [8], 4%; in [9] it was 133%; in [10] it was 85%; in [11], 103%; in assay [13] it was 119%. Also, the “residual kinase activity Lck(h) activated” value in assay [12] came to 107.
Turning to `CNC(=O)c1ccc(Nc2ncc(C(F)(F)F)c(NCc3nccnc3N(C)S(C)(=O)=O)n2)cc1` [VS-6063, Defactinib], the remaining activity at 1 µM in [1] was 44%; in [2], 104%; in assay [3] it was 65%; in assay [4], 7%; in assay [5], 30%; in assay [6] it was 28%. Moreover, the remaining activity at 1 µM in assay [7] came to 94%; in [8], 6%; in assay [9], 134%; in [10], 62%; in [11], 98%; in assay [13], 82%. Moreover, the “residual kinase activity Lck(h) activated” value in [12] is reported as 58.

The values are drawn from PMC10528299, “Targeting FAK/PYK2 with SJP1602 for Anti-Tumor Activity in Triple-Negative Breast Cancer” (Current Issues in Molecular Biology, 2023).
